From patent US9498465B2, “Topical compositions in the form of a gel containing a particular solubilized retinoid” (GALDERMA RESEARCH & DEVELOPMENT, priority 2012, dated 2016)

Experiments:
Type in all cases: physicochemical
[1] = Maximum solubility in hydrophilic excipients, determined by HPLC
Description: In order to produce an aqueous-glycolic gel containing an amount of ethanol of less than 30%, in which compound A is solubilized, pre-formulation studies were carried out in order to reveal the excipients enabling good solubilization and also good stability of the active agent. • (1) List of the hydrophilic excipients or mixture of hydrophilic excipients in which maximum solubility was determined by HPLC: […]

[2] = Tests introducing ST-cyclomethicone 5NF: recrystallization of compound A
Description: In order to obtain an acceptable feel for acne (non-greasy, non-tacky) while at the same time keeping good solubility of compound A in the formula, tests introducing ST-cyclomethicone 5 were carried out, in the knowledge that ST-cyclomethicone 5NF is a nonsolvent of compound A and that this addition may therefore cause recrystallization of compound A: […]

[3] = Stability of compound A in its principal solvents and cosolvents, determined by HPLC

Maximum solubility as % ([1]; in Arlasolve DMI (Dimethyl Isosorbide)): 0.4% | Maximum solubility as % ([1]; in Benzyl Alcohol): 2.3880% | Maximum solubility as % ([1]; in Dipropylene Glycol Care (Dipropylene Glycol)): 0.4% | Maximum solubility as % ([1]; in Ethanol 95-96%): 0.92% | Maximum solubility as % ([1]; in Glycerine (Glycerin)): 0.002% | Maximum solubility as % ([1]; in Hexylene Glycol): 0.4% | Maximum solubility as % ([1]; in Hydrolite 5P (Pentylene glycol)): 0.482% | Maximum solubility as % ([1]; in PEG 400 (Peg-8)): 1.52% | Maximum solubility as % ([1]; in Pharmasolve (Methyl Pyrolidone)): 4.84% | Maximum solubility as % ([1]; in Phenoxetol (Phenoxyethanol)): 1.957% | Maximum solubility as % ([1]; in Propylene Glycol): 0.111% | Maximum solubility as % ([1]; in Transcutol (Ethoxy diglycol)): 4.17% | Solubility (in words) ([1]; in glycerine): virtually insoluble | Recrystallization of COMPOUND A ([2]; formula with ST-Cyclomethicone 5NF 0%): No | Recrystallization of COMPOUND A ([2]; formula with ST-Cyclomethicone 5NF 2%): No | Recrystallization of COMPOUND A ([2]; formula with ST-Cyclomethicone 5NF 5%): Re- | Solubility (in words) ([2]; in ST-cyclomethicone 5NF): nonsolvent | Stability results ([3]; 0.001% in Hexylene Glycol): Unstable | Stability results ([3]; 0.005% in Ethanol 95-96%): Stable | Stability results ([3]; 0.005% in Ethanol 95-96%, listed as compound A): stable | Stability results ([3]; 0.01% in Benzyl Alcohol): Unstable | Stability results ([3]; 0.03% in Arlasolve DMI (Dimethyl Isosorbide)): Unstable | Stability results ([3]; 0.03% in Hydrolite 5P (Pentylene glycol)): Unstable | Stability results ([3]; 0.03% in Pharmasolve (Methyl Pyrolidone)): Unstable | Stability results ([3]; 0.03% in Transcutol (Ethoxy diglycol)): Unstable | Stability results ([3]; 0.05% in Phenoxetol (Phenoxyethanol)): Stable | Stability results ([3]; 0.05% in Phenoxetol (Phenoxyethanol), listed as compound A): stable | Stability results ([3]; 0.05% in Propylene Glycol, listed as COMPOUND A): Stable | Stability results ([3]; 0.05% in Propylene Glycol, listed as compound A): stable | Stability results ([3]; 0.3% in Dipropylene Glycol Care (Dipropylene Glycol), listed as COMPOUND A): Stable | Stability results ([3]; 0.3% in Dipropylene Glycol Care (Dipropylene Glycol), listed as compound A): stable | Stability results ([3]; 0.3% in PEG 400 (Poly Ethylene Glycol)): Unstable
SMILES: CC(C)(C)c1cc(-c2cc(-c3ccc(C(=O)O)cc3)ccc2OCCO)ccc1N1CCCC1 [Compound A, 3″-tert-butyl-4′-(2-hydroxyethoxy)-4″-pyrrolidin-1-yl[1,1′;3′,1″]terphenyl-4-carboxylic acid]
